# Where two headings read alike, the source gives them in different places.
# Legend:
# [1] = tested on: T3SS-mediated secretion of ExoS′-βLA fusion protein, P. aeruginosa strain MDM973; test: Effector-β-lactamase (ExoS′-βLA) secretion assay; format: cell-based, Pseudomonas aeruginosa; conditions: for IC50: Pseudomonas aeruginosa, read-out: Avg. Secretion IC50
# Source text: Effector-β-Lactamase (βLA) Secretion Assays.
# P. aeruginosa. A gene encoding an ExoS'-β-lactamase (βLA) fusion protein (comprised of 234 codons of P. aeruginosa effector ExoS fused to the TEM-1 β-lactamase gene lacking secretion signal codons) was constructed by splicing by overlap extension PCR (SOE-PCR) (Choi and Schweizer, 2005, BMC Microbiol., 5:30) using primers 5-10 (Table 3, above), sequence confirmed, cloned into lacI^Q-containing GATEWAY® vector pUCP24GW (see Moir, et al., 2007, J Biomol. Screen., 12:855-64) behind the lac promoter, and introduced into P. aeruginosa by electroporation (see Choi, et al., 2006, J. Microbiol. Methods, 64:391-7). Secretion of fusion proteins was detected by measuring the hydrolysis of the chromogenic β-lactamase substrate nitrocefin in clear 96-well microplates in a modification of a previously described assay (Lee, et al., 2007, Infect. Immun., 75:1089-98). Cells of strain MDM973 (PAK/pUCP24GW-exoS:blaM) were sub-cultured in the morning from overnight growths in LBG into 0.1 ml of LBGIE with or without test compounds and grown for 150 min. Nitrocefin (100 μg/ml final) was added, and A490 measurements taken every minute for 15 min in a Victor^3V 1420 Multilabel HTS Counter (PerkinElmer). Slopes were calculated as a relative measure of the quantity of the effector-βLA fusion protein secreted and were absolutely dependent on induction with IPTG, EGTA, and the presence of a functional pscC gene in the P. aeruginosa cells. Typical signal:background ratios were 6-10.
# [2] = tested on: T3SS-mediated cytotoxicity of translocated effector protein ExoU in CHO cells; test: Inhibition of P. aeruginosa ExoU-dependent CHO cell killing (translocation, LDH release); format: cell-based; conditions: Pseudomonas aeruginosa, read-out: Avg. Translocation IC50
# Source text: Inhibition of P. aeruginosa ExoU-Dependent CHO Cell Killing.
# Pseudolipasin, which acts by direct inhibition of the ExoU phospholipase, was used as control inhibitor (Lee, et al, 2007, Infect. Immun., 75:1089-98).
# [3] = Determination of mammalian cytotoxicity (MTS); format: cell-based; conditions: human
# Protocol: Determination of Mammalian Cytotoxicity.
# See, Marshall, et al., 1995, A critical assessment of the use of microculture tetrazolium assays to measure cell growth and function, Growth Regul., 5:69-84. Briefly, 96-well plates were seeded with HeLa cells at a density of 4×10^3 per well in VP-SFM medium without serum (Frazzati-Gallina, et al., 2001, J. Biotechnol., 92:67-72), in the presence or absence of serial dilutions of a compound dissolved in DMSO. Following incubation for 3 days at 37° C. in VP-SFM, cell viability was measured with the vital tetrazolium salt stain 3-(4,5-dimethylthiazol-2-yl)-2,5 diphenyltetrazolium bromide according to the manufacturer's instructions (Promega, Madison, Wis.). Values were determined in duplicate using dilutions of inhibitory compound from 100 μM to 0.2 μM.
# [4] = Table 4, HeLa cells, 3 days, dilutions from 100 μM to 0.2 μM, read-out: Avg. CC50
Structure (SMILES),IC50 [1],IC50 [2],"CC50 at 3 days [3, 4]",melting point,CC50 at 3 days [3],IC50 values lower (T3SS secretion inhibition) ([1]; vs. MBX-1641),effect of structural alteration on T3SS-mediated secretion inhibition ([1]; vs. MBX-1641)
CC(Oc1ccc(Cl)cc1Cl)C(=O)NC(c1ccc(F)cc1)C1CC1 (stereo not drawn) [MBX-2614],1.5 µM,8.4 µM,12.8 µM,109 °C,,,
CC(Oc1ccc(Cl)cc1Cl)C(=O)NCc1cc2ccccc2[nH]1 (stereo not drawn) [MBX-2624],,16 µM,9 µM,,,,
C[C@@H](Oc1ccc(Cl)cc1Cl)C(=O)N[C@H](C)c1ccc(F)cc1 [MBX-2572],,> 100 µM,> 100 µM,,,,
CC(Oc1ccc(Cl)cc1Cl)C(=O)NCc1ccc(N(C)C)cc1 (stereo not drawn) [MBX-1961],33 µM,3.4 µM,86 µM,127 °C,,,
COc1ccc(CNC(=O)C(C)Sc2ccc(Cl)cc2Cl)cc1 (stereo not drawn) [MBX-2163],8.3 µM,12.2 µM,,89 °C,> 100 µM,,
CC(Oc1ccc(Cl)cc1Cl)C(=O)NC(c1ccc(F)cc1)C1CCC1 (stereo not drawn) [MBX-2615],2.2 µM,,26 µM,103 °C,,,
CCCCC(NC(=O)C(C)Oc1ccc(Cl)cc1Cl)c1ccc(F)cc1 (stereo not drawn) [MBX-2629],4.7 µM,,19 µM,100 °C,,,
CC(Oc1ccc(Cl)cc1Cl)C(=O)NCc1ccc2[nH]cnc2c1 (stereo not drawn) [MBX-2593],7 µM,33 µM,,71 °C,> 100 µM,,
CC(Oc1ccc(Cl)cc1Cl)C(=O)NCc1ccc(F)cc1 (stereo not drawn) [MBX-1642],8 µM,15 µM,41 µM,,,,
CC(Oc1ccc(Cl)cc1Cl)C(=O)NCc1ccc2occc2c1 (stereo not drawn) [MBX-2592],2.5 µM,> 100 µM,44 µM,125 °C,,,
CC(Oc1ccc(Cl)cc1Cl)C(=O)NCc1ccccc1 (stereo not drawn) [MBX-1939],,7.5 µM,54 µM,121 °C,,,
CC(Oc1ccc(Cl)cc1Cl)C(=O)NCc1ccc2[nH]ccc2c1 (stereo not drawn) [MBX-2590],1.7 µM,,,91 °C,25 µM,,
CC(Oc1ccc(Cl)cc1Cl)C(=O)NCc1ccc2[nH]c(CCO)cc2c1 (stereo not drawn) [MBX-2626],5.4 µM,9.2 µM,,157 °C,> 100 µM,,
CC(Oc1ccc(Cl)cc1Cl)C(=O)NCCc1ccc(F)cc1 (stereo not drawn) [MBX-2588],5.5 µM,68 µM,25 µM,129 °C,,,
COc1cccc(OC)c1CNC(=O)C(C)Oc1ccc(Cl)cc1Cl (stereo not drawn) [MBX-1950],53.3 µM,5 µM,22 µM,122 °C,,,
CC(Oc1ccc(Cl)cc1Cl)C(=O)NC1CCCc2cc(F)ccc21 (stereo not drawn) [MBX-2601],35 µM,,,82 °C,40 µM,,
CC(Oc1ccc(Cl)cc1Cl)C(=O)NCc1ccc2c(c1)CCCO2 (stereo not drawn) [MBX-1997],7.3 µM,9.2 µM,> 100 µM,106 °C,,,
C[C@H](NC(=O)[C@@H](C)Oc1ccc(Cl)cc1Cl)c1ccc(F)cc1 [MBX-2573],,> 100 µM,> 100 µM,,,,
CC(Oc1ccc(Cl)cc1Cl)C(=O)NCc1ccc2cc[nH]c2c1 (stereo not drawn) [MBX-2594],1.6 µM,5.3 µM,10.4 µM,120 °C,,,
CC(Oc1ccc(Cl)cc1Cl)C(=O)NC(c1ccc(F)cc1)C(C)C (stereo not drawn) [MBX-2617],2.1 µM,,9 µM,107 °C,,,
CC(Oc1ccc(Cl)cc1Cl)C(=O)NCc1ccc2c(ccn2C)c1 (stereo not drawn) [MBX-2591],4.1 µM,> 100 µM,38 µM,146 °C,,,

Structure (SMILES),IC50 [1],IC50 [2],"CC50 at 3 days [3, 4]",melting point,CC50 at 3 days [3],IC50 values lower (T3SS secretion inhibition) ([1]; vs. MBX-1641),effect of structural alteration on T3SS-mediated secretion inhibition ([1]; vs. MBX-1641)
Cc1c(-c2ccccc2)[nH]c2ccc(CNC(=O)C(C)Oc3ccc(Cl)cc3Cl)cc12 (stereo not drawn) [MBX-2600],9 µM,83 µM,,68 °C,24 µM,,
CC(Oc1ccc(Cl)cc1Cl)C(=O)NC1COc2cc(F)ccc21 (stereo not drawn) [MBX-2589],25 µM,> 100 µM,36 µM,134 °C,,,
CC(Oc1ccc(Cl)cc1Cl)C(=O)NCc1ccccc1F (stereo not drawn) [MBX-1962],,8.2 µM,32 µM,121 °C,,,
CC(Oc1ccc(Cl)cc1Cl)C(=O)NC(C)(C)c1ccc(F)cc1 (stereo not drawn) [MBX-2616],8 µM,,16 µM,105 °C,,,
CC(Oc1ccc(Cl)cc1Cl)C(=O)NCc1ccc(F)cn1 (stereo not drawn) [MBX-2623],21 µM,,70 µM,78 °C,,,
CC(Oc1ccc(Cl)cc1Cl)C(=O)NC1CCc2cc(F)ccc21 (stereo not drawn) [MBX-2595],16 µM,> 100 µM,35 µM,135 °C,,,
CC(Oc1ccc(Cl)cc1Cl)C(=O)NC(C)c1ccc(F)cc1 (stereo not drawn) [MBX-2221],4.6 µM,,32 µM,,,34%,
CC(Oc1ccc(Cl)cc1Cl)C(=O)NCc1cccc(Cl)c1 (stereo not drawn) [MBX-1957],,5.4 µM,72 µM,140 °C,,,
CCCC(NC(=O)C(C)Oc1ccc(Cl)cc1Cl)c1ccc(F)cc1 (stereo not drawn) [MBX-2628],4.3 µM,,14 µM,79 °C,,,
CC(Oc1ccc(Cl)cc1Cl)C(=O)NCc1cccc(F)c1 (stereo not drawn) [MBX-1963],,4.9 µM,59 µM,106 °C,,,
CC(Oc1ccc(Cl)cc1Cl)C(=O)NCCc1c[nH]c2cc(F)ccc12 (stereo not drawn) [MBX-2613],12 µM,10 µM,,114 °C,7 µM,,
CC(Oc1ccc(Cl)cc1Cl)C(=O)NC1(c2ccc(F)cc2)CC1 (stereo not drawn) [MBX-2666],5.3 µM,,100 µM,134 °C,,,
CC(Oc1ccc(Cl)cc1Cl)C(=O)NCc1ccc(Cl)cc1 (stereo not drawn) [MBX-1958],,9.6 µM,42 µM,115 °C,,,
CC(Oc1ccc(Cl)cc1Cl)C(=O)NC(C)(C)c1ccc2c(c1)OCO2 (stereo not drawn) [MBX-2220],2.9 µM,15 µM,64 µM,105 °C,,29%,
CC(Oc1ccc(Cl)cc1Cl)C(=O)NC(C#N)c1ccc(F)cc1 (stereo not drawn) [MBX-2627],5.9 µM,11 µM,26 µM,112 °C,,,
Cc1cccc(CNC(=O)C(C)Oc2ccc(Cl)cc2Cl)c1 (stereo not drawn) [MBX-1952],,8 µM,32 µM,113 °C,,,
CC(Nc1ccc(Cl)cc1Cl)C(=O)NCc1ccc2c(c1)OCO2 (stereo not drawn) [MBX-2212],9.6 µM,35.3 µM,,,80 µM,,adverse effect
CCC(NC(=O)C(C)Oc1ccc(Cl)cc1Cl)c1ccc(F)cc1 (stereo not drawn) [MBX-2608],,,11 µM,95 °C,,,
CC(Oc1ncc(Cl)cc1Cl)C(=O)NCc1ccc2c(c1)OCO2 (stereo not drawn) [MBX-2155],,,> 100 µM,180 °C,,,
CC(Oc1ncc(Cl)cc1Cl)C(=O)NCc1ccc(F)cc1 (stereo not drawn) [MBX-2158],6.8 µM,26.4 µM,> 100 µM,129 °C,,,
